Non-standard residues stand in square brackets, D forms with d. Residues, ends and D or L forms follow the SMILES beside them. Phe(4-Cl) = N[C@@H](Cc1ccc(Cl)cc1)C(=O)O; Phe(4-F) = N[C@@H](Cc1ccc(F)cc1)C(=O)O; Phe(4-I) = N[C@@H](Cc1ccc(I)cc1)C(=O)O; 2Nal = N[C@@H](Cc1ccc2ccccc2c1)C(=O)O; Nle = CCCC[C@H](N)C(=O)O; dAbu = CC[C@@H](N)C(=O)O
Assays:
human MC4R = human MC4R (Homo sapiens, UniProt P32245); assay: Intracellular cAMP levels in live cells, MC3R selectivity relative to MC4R; assay type: cell-based; conditions: cAMP assays in human MC3R and human MC4R stable cell lines
Chain of human MC4R (P32245 whole entry): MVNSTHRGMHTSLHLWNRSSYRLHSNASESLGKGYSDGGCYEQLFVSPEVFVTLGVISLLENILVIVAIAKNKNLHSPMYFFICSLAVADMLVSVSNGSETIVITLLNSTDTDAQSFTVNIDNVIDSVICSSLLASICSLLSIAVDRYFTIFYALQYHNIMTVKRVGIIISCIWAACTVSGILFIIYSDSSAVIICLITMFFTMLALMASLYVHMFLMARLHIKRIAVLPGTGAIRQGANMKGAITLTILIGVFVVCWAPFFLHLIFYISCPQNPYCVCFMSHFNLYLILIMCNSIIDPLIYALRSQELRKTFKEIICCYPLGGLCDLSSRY

human MC3R = molecular target: T1, human MC3R (Homo sapiens, UniProt P41968); assay: Intracellular cAMP levels in live cells, MC3R agonist activity; assay type: cell-based; conditions: cAMP split-luciferase reporter cell line stably expressing human MC3R; direct agonist effect, measurement window 1
T1 construct: expressed in transfected cells
T1 sequence (P41968 whole entry): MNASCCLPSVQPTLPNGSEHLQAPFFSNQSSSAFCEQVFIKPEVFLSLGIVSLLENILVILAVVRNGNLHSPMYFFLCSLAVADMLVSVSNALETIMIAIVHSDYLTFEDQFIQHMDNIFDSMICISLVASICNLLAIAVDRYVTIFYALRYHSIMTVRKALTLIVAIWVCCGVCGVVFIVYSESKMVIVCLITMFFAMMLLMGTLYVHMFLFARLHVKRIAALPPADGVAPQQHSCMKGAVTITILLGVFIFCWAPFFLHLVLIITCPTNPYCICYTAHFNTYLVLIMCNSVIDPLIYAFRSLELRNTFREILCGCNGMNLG
Method: The stable cell lines were grown and maintained in selection media consisting of Dulbecco's modified Eagle media (DMEM) with 4.5 g/l D-glucose, and 4 mM L-glutamine (Thermo Fisher Scientific, Waltham, MA), supplemented with 10% fetal bovine serum, 100 units/ml penicillin, 100 μg/ml streptomycin, 2.5 μg/ml amphotericin B, 200 μg/ml hygromycin B (for positive selection of the GScAMP22f luciferase reporter), and Geneticin™ (G418) 700 μg/ml (for MC3R or MC4R selection). Actual serum concentration during the assay is estimated to be about 1%. Cell line identity is routinely verified by qPCR and MC3R- and MC4R-specific oligonucleotides.
The assay for the determination of the CAMP response in live cells was described previously. […] Ccells were seeded at a density of 20,000 cells per well using 384-well poly-D lysine-coated, clear bottom, and black-wall assay plates (Corning Inc. Corning, NJ). Cells were allowed to attach to the plates for 18 to 24 h after which growth media was removed and 20 ul of 4% D-luciferin (Promega) in CO2 independent, serum-free medium (Thermo Fisher Scientific) was added to each well. […] Intracellular cAMP levels were measured using an FDSS 7000EX Functional Drug Screening System (Hamamatsu Photonics, Hamamatsu, Japan) in the Center for Chemical Genomics at the Life Sciences Institute. This instrument allowed the in-line addition of test-peptides and receptor agonists while simultaneously acquiring the luminescence signal from live cells. […] A submaximal forskolin (20 μM) concentration was also included to serve as a normalization reference to account for cell number variations and differences in assay transducer efficiency between cell lines.
With this set up it was possible to evaluate the direct agonist effect of the test-peptides on the MC3R and MC4R cell lines during measurement window 1, while the antagonist profile in the presence of EC90 α-MSH was determined on measurement window 2. […] EC50 or IC50 potency values were determined by non-linear regression by fitting the data to a sigmoid four-parameter variable slope model using the GraphPad Prism version 8.4 software package (San Diego CA).

in vitro = assay: in vitro
Method: Pooled mouse plasma was prepared and stored at −80° C. prior to use. 396 μL mouse plasma was incubated at 37° C. for 5 minutes in 1.5 mL microcentrifuge tubes. 4 μL of 100 μM test or control compound/peptide was added to each tube and incubated for 0.5, 15, 30, 60, 120, or 240 minutes. An aliquot of 40 μL of each reaction was stopped by the addition of 4 volume of cold acetonitrile containing 200 ng/mL of Setmelanotide as an internal standard (IS). The incubation solution was centrifuged at 3500 rpm for 10 minutes to precipitate protein. The supernatant was used for LC/MS/MS analysis. The natural log peak area ratio (compound peak […] area/internal standard peak area) was plotted against time and the gradient of the line determined.

| Compound | MC3R selectivity (relative to MC4R) (human MC4R) | EC50 (human MC3R) | further results |
| --- | --- | --- | --- |
| CCCC[C@H](NC(=O)[C@@H](NC(C)=O)C(C)C)C(=O)N[C@H](C)C(=O)N[C@@H](Cc1c[nH]cn1)C(=O)N[C@@H](Cc1ccccc1)C(=O)N[C@@H](CCCNC(=N)N)C(=O)N[C@H](Cc1c[nH]c2ccccc12)C(=O)N[C@@H](CC(=O)O)C(=O)N[C@@H](CCCNC(=N)N)C(=O)N[C@@H](Cc1ccccc1)C(=O)NCC(=O)O [CTX-1121, Val-Nle-D-Ala-His-Phe-Arg-D-Trp-Asp-Arg-Phe-Gly] (Ac-V[Nle][dA]HFR[dW]DRFG-OH) | 2,123 | 3.1 nM | half-life at 1 µM (in vitro; mouse, plasma): 2.3 h; remaining at 5 min, 1 µM (in vitro; mouse, plasma): 118%; remaining at 0.5 h, 1 µM (in vitro; mouse, plasma): 91.1%; remaining at 1 h, 1 µM (in vitro; mouse, plasma): 81.7%; remaining at 2 h, 1 µM (in vitro; mouse, plasma): 68.3%; remaining at 4 h, 1 µM (in vitro; mouse, plasma): 33.1%; Mouse Plasma Stability, time point 0 min (in vitro; pooled mouse plasma, 37° C.): 100%; Mouse Plasma Stability, time point 15 min (in vitro; pooled mouse plasma, 37° C., 15 min, in % (unit assumed)): 120.25 |
| CCCC[C@H](NC(=O)[C@@H](NC(=O)[C@H](N)Cc1ccc(O)cc1)C(C)C)C(=O)N[C@H](C)C(=O)N[C@@H](Cc1c[nH]cn1)C(=O)N[C@@H](Cc1ccccc1)C(=O)N[C@@H](CCCNC(=N)N)C(=O)N[C@H](Cc1c[nH]c2ccccc12)C(=O)N[C@@H](CC(=O)O)C(=O)N[C@@H](CCCNC(=N)N)C(=O)N[C@@H](Cc1ccccc1)C(=O)NCC(=O)O [CTX-1125, D-Tyr-Val-Nle-D-Ala-His-Phe-Arg-D-Trp-Asp-Arg-Phe-Gly] (H-[dY]V[Nle][dA]HFR[dW]DRFG-OH) | 747 | 1.7 nM | half-life at 1 µM (in vitro; mouse, plasma): 2.35 h; remaining at 5 min, 1 µM (in vitro; mouse, plasma): 93.2%; remaining at 0.25 h, 1 µM (in vitro; mouse, plasma): 105%; remaining at 0.5 h, 1 µM (in vitro; mouse, plasma): 105%; remaining at 1 h, 1 µM (in vitro; mouse, plasma): 103%; remaining at 2 h, 1 µM (in vitro; mouse, plasma): 79.2%; remaining at 4 h, 1 µM (in vitro; mouse, plasma): 28.8%; Mouse Plasma Stability, time point 0 min (in vitro; pooled mouse plasma, 37° C.): 100% |
| CCCC[C@H](NC(C)=O)C(=O)N[C@H](C)C(=O)N[C@@H](Cc1c[nH]cn1)C(=O)N[C@@H](Cc1ccc(I)cc1)C(=O)N[C@@H](CCCNC(=N)N)C(=O)N[C@H](Cc1c[nH]c2ccccc12)C(=O)N[C@@H](CC(=O)O)C(=O)N[C@@H](CCCNC(=N)N)C(=O)N[C@@H](Cc1ccccc1)C(=O)NCC(=O)O [CTX-1167, Nle-D-Ala-His-Phe(4-I)-Arg-D-Trp-Asp-Arg-Phe-Gly] (Ac-[Nle][dA]H[Phe(4-I)]R[dW]DRFG-OH) | 937 | 4.8 nM |  |
| CCCC[C@H](NC(C)=O)C(=O)N[C@H](C)C(=O)N[C@@H](Cc1c[nH]cn1)C(=O)N[C@@H](Cc1ccc(I)cc1)C(=O)N[C@@H](CCCNC(=N)N)C(=O)N[C@H](Cc1c[nH]c2ccccc12)C(=O)N[C@@H](CC(=O)O)C(=O)N[C@@H](CCCNC(=N)N)C(=O)N[C@@H](Cc1ccccc1)C(N)=O [CTX-1169, Nle-D-Ala-His-Phe(4-I)-Arg-D-Trp-Asp-Arg-Phe] (Ac-[Nle][dA]H[Phe(4-I)]R[dW]DRF-NH2) | 200 | 4.8 nM |  |
| CCCC[C@H](NC(C)=O)C(=O)N[C@H](CC)C(=O)N[C@@H](Cc1c[nH]cn1)C(=O)N[C@@H](Cc1ccc(I)cc1)C(=O)N[C@@H](CCCNC(=N)N)C(=O)N[C@H](Cc1c[nH]c2ccccc12)C(=O)N[C@@H](CC(=O)O)C(=O)N[C@@H](CCCNC(=N)N)C(=O)N[C@@H](Cc1ccccc1)C(=O)NCC(=O)O [CTX-1191, Nle-D-Abu-His-Phe(4-I)-Arg-D-Trp-Asp-Arg-Phe-Gly] (Ac-[Nle][dAbu]H[Phe(4-I)]R[dW]DRFG-OH) | 470 | 3.9 nM |  |
| CCCC[C@H](NC(C)=O)C(=O)N[C@H](C)C(=O)N[C@@H](Cc1c[nH]cn1)C(=O)N[C@@H](Cc1ccc2ccccc2c1)C(=O)N[C@@H](CCCNC(=N)N)C(=O)N[C@H](Cc1c[nH]c2ccccc12)C(=O)N[C@@H](CC(=O)O)C(=O)N[C@@H](CCCNC(=N)N)C(=O)N[C@@H](Cc1ccccc1)C(=O)NCC(=O)O [CTX-1512, Nle-D-Ala-His-Nal(2')-Arg-D-Trp-Asp-Arg-Phe-Gly] (Ac-[Nle][dA]H[2Nal]R[dW]DRFG-OH) | 804 | 13.1 nM |  |
| CCCC[C@H](NC(C)=O)C(=O)N[C@H](C)C(=O)N[C@@H](Cc1c[nH]cn1)C(=O)N[C@@H](Cc1ccc(F)cc1)C(=O)N[C@@H](CCCNC(=N)N)C(=O)N[C@H](Cc1c[nH]c2ccccc12)C(=O)N[C@@H](CC(=O)O)C(=O)N[C@@H](CCCNC(=N)N)C(=O)N[C@@H](Cc1ccccc1)C(=O)NCC(=O)O [CTX-1518, Nle-D-Ala-His-Phe(4-F)-Arg-D-Trp-Asp-Arg-Phe-Gly] (Ac-[Nle][dA]H[Phe(4-F)]R[dW]DRFG-OH) | 1,559 | 1.9 nM |  |
| CCCC[C@H](NC(C)=O)C(=O)N[C@H](C)C(=O)N[C@@H](Cc1c[nH]cn1)C(=O)N[C@@H](Cc1ccccc1)C(=O)N[C@@H](CCCNC(=N)N)C(=O)N[C@H](Cc1c[nH]c2ccccc12)C(=O)N[C@@H](C)C(=O)N[C@@H](CCCNC(=N)N)C(=O)N[C@@H](Cc1ccccc1)C(=O)NCC(=O)O [CTX-1528, Nle-D-Ala-His-Phe-Arg-D-Trp-Ala-Arg-Phe-Gly] (Ac-[Nle][dA]HFR[dW]ARFG-OH) | 182 | 1.9 nM |  |
| CCCC[C@H](NC(C)=O)C(=O)N[C@H](C)C(=O)N[C@@H](Cc1c[nH]cn1)C(=O)N[C@@H](Cc1ccccc1)C(=O)N[C@@H](CCCNC(=N)N)C(=O)N[C@H](Cc1c[nH]c2ccccc12)C(=O)N[C@@H](Cc1ccccc1)C(=O)N[C@@H](CCCNC(=N)N)C(=O)N[C@@H](Cc1ccccc1)C(=O)NCC(=O)O [CTX-1529, Nle-D-Ala-His-Phe-Arg-D-Trp-Phe-Arg-Phe-Gly] (Ac-[Nle][dA]HFR[dW]FRFG-OH) | 82 | 4.8 nM |  |
| CCCC[C@H](NC(C)=O)C(=O)N[C@H](C)C(=O)N[C@@H](Cc1c[nH]cn1)C(=O)N[C@@H](Cc1ccccc1)C(=O)N[C@@H](CCCNC(=N)N)C(=O)N[C@H](Cc1c[nH]c2ccccc12)C(=O)N[C@H](Cc1ccccc1)C(=O)N[C@@H](CCCNC(=N)N)C(=O)N[C@@H](Cc1ccccc1)C(=O)NCC(=O)O [CTX-1531, Nle-D-Ala-His-Phe-Arg-D-Trp-D-Phe-Arg-Phe-Gly] (Ac-[Nle][dA]HFR[dW][dF]RFG-OH) | 8 | 357 nM |  |
| CCCC[C@H](NC(C)=O)C(=O)N[C@H](C)C(=O)N[C@@H](Cc1c[nH]cn1)C(=O)N[C@@H](Cc1ccc(I)cc1)C(=O)N[C@@H](CCCNC(=N)N)C(=O)N[C@H](Cc1c[nH]c2ccccc12)C(=O)NCC(N)=O [CTX-1543, Nle-D-Ala-His-Phe(4-I)-Arg-D-Trp-Gly] (Ac-[Nle][dA]H[Phe(4-I)]R[dW]G-NH2) | 202 | 3.1 nM |  |
| CSCC[C@H](NC(=O)[C@@H](N)C(C)C)C(=O)NCC(=O)N[C@@H](Cc1c[nH]cn1)C(=O)N[C@@H](Cc1ccccc1)C(=O)N[C@@H](CCCNC(=N)N)C(=O)N[C@H](Cc1c[nH]c2ccccc12)C(=O)N[C@@H](CC(=O)O)C(=O)N[C@@H](CCCNC(=N)N)C(=O)N[C@@H](Cc1ccccc1)C(=O)NCC(=O)O [CTX-1546, Val-Met-Gly-His-Phe-Arg-D-Trp-Asp-Arg-Phe-Gly] (H-VMGHFR[dW]DRFG-OH) | 51 | 1.7 nM |  |
| CSCC[C@H](N)C(=O)NCC(=O)N[C@@H](Cc1c[nH]cn1)C(=O)N[C@@H](Cc1ccccc1)C(=O)N[C@@H](CCCNC(=N)N)C(=O)N[C@H](Cc1c[nH]c2ccccc12)C(=O)N[C@@H](CC(=O)O)C(=O)N[C@@H](CCCNC(=N)N)C(=O)N[C@@H](Cc1ccccc1)C(=O)NCC(=O)O [CTX-1547, Met-Gly-His-Phe-Arg-D-Trp-Asp-Arg-Phe-Gly] (H-MGHFR[dW]DRFG-OH) | 54 | 1.5 nM |  |
| CCCC[C@H](NC(=O)[C@@H](NC(=O)[C@@H](N)Cc1ccc(O)cc1)C(C)C)C(=O)N[C@H](C)C(=O)N[C@@H](Cc1c[nH]cn1)C(=O)N[C@@H](Cc1ccc(Cl)cc1)C(=O)N[C@@H](CCCNC(=N)N)C(=O)N[C@H](Cc1c[nH]c2ccccc12)C(=O)N[C@@H](CC(=O)O)C(=O)N[C@@H](CCCNC(=N)N)C(=O)N[C@@H](Cc1ccccc1)C(=O)NCC(=O)O [CTX-2121, Tyr-Val-Nle-D-Ala-His-Phe(4-Cl)-Arg-D-Trp-Asp-Arg-Phe-Gly] (H-YV[Nle][dA]H[Phe(4-Cl)]R[dW]DRFG-OH) | 93 | 2.5 nM |  |
